Source: paper PMC11882969 (Nature Communications, 2025)
Read-outs that look alike come from different tables or passages of the source.

Tests used:
CB1 (rCB1) [1] = target: T1, CB1 (rCB1) (Rattus norvegicus, UniProt P20272); test: Single-point radioligand displacement screen; assay type: binding; conditions: 10 µM, 1 µM or 300 nM by cell colour (not visible)
hCB1 = hCB1 (Homo sapiens, UniProt P21554); test: bioSensAll ebBRET signaling profiling, hCB1; assay type: cell-based; set-up: host or cells: HEK293SL cells, transient PEI transfection; conditions: for Barr2+GRK2 hCB1 response: Barr2+GRK2 biosensor; for Gi1 hCB1 / GoB hCB1: single replicate values, FigS6a; for EC50: hCB1 GoB; for Emax: normalized to CP-55,940
Sequence of hCB1 (P21554 whole entry): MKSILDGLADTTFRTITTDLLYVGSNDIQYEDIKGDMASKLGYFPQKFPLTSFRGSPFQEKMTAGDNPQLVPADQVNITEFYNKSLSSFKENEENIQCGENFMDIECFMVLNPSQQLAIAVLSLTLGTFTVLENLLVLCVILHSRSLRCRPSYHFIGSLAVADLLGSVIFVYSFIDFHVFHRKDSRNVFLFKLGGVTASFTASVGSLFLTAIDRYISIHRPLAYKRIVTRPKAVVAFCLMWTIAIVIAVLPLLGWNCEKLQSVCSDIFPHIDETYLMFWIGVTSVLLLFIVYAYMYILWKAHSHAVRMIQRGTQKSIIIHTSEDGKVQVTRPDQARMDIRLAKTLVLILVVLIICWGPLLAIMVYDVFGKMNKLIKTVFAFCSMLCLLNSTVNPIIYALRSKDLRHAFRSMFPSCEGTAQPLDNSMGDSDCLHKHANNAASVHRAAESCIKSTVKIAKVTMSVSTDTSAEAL

CB1 (rCB1) [2] = target: T1, CB1 (rCB1); test: Radioligand competition binding, [3H]-CP-55,940, rat brain membranes; conditions: rCB1

T1 sequence (P20272 whole entry): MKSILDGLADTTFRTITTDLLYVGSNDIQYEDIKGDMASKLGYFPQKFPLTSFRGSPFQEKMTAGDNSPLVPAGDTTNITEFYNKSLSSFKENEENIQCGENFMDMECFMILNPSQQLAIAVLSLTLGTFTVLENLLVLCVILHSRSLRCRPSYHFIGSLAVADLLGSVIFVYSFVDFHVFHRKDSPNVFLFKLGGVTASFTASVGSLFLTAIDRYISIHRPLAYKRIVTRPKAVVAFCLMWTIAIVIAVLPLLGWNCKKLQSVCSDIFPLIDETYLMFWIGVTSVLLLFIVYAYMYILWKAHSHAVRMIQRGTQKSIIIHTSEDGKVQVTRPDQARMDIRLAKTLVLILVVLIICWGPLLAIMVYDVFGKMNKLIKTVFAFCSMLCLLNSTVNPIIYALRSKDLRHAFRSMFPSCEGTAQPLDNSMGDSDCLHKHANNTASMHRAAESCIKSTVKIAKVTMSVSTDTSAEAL

In the case of Cn1nc(-c2nnc(C(C)(C)Oc3ccc(C(F)(F)F)cc3)o2)c2ccccc2c1=O [‘2153], the “% 1H-CP-55,940 displacement (mean) from single point screen” value (CB1 (rCB1) [1]) is reported as 89.82%, the “Barr2+GRK2 hCB1 response” value (hCB1; Log [Compound] (M) -4.22186) is reported as 52.3115 and the “Barr2+GRK2 hCB1 response” value (hCB1; Log [Compound] (M) -4.63927) is reported as 1.898. For the same compound, the “Barr2+GRK2 hCB1 response” value (hCB1; Log [Compound] (M) -5.05788) was -31.9237, the “Barr2+GRK2 hCB1 response” value (hCB1; Log [Compound] (M) -5.47381) was -49.7918 and the “Barr2+GRK2 hCB1 response” value (hCB1; Log [Compound] (M) -5.89285) was -32.2428. For the same compound, the “Barr2+GRK2 hCB1 response” value (hCB1; Log [Compound] (M) -6.31878) was -30.3284, the “Barr2+GRK2 hCB1 response” value (hCB1; Log [Compound] (M) -6.72585) was -23.6278 and the “Barr2+GRK2 hCB1 response” value (hCB1; Log [Compound] (M) -7.14267) was -46.282. For the same compound, the “Barr2+GRK2 hCB1 response” value (hCB1; Log [Compound] (M) -7.55284) was -43.4104, the “Barr2+GRK2 hCB1 response” value (hCB1; Log [Compound] (M) -8) was -60.3212 and the “Barr2+GRK2 hCB1 response” value (hCB1; Log [Compound] (M) -8.22186) was 12.7465. For the same compound, the “Barr2+GRK2 hCB1 response” value (hCB1; Log [Compound] (M) -8.39794) was -37.9861, the “Barr2+GRK2 hCB1 response” value (hCB1; Log [Compound] (M) -8.68787) was -0.01644 and the “Barr2+GRK2 hCB1 response” value (hCB1; Log [Compound] (M) -9.15521) was -27.1376. For the same compound, the “Barr2+GRK2 hCB1 response” value (hCB1; Log [Compound] (M) -9.61989) was -19.4799, the “Barr2+GRK2 hCB1 response” value (hCB1; Log [Compound] (M) -10.0969) was -46.6011 and the “Barr2+GRK2 hCB1 response” value (hCB1; Log [Compound] (M) -10.5529) was -22.3515. The “Barr2+GRK2 hCB1 response” value (hCB1; Log [Compound] (M) -11.0177) was -18.8417, the “Barr2+GRK2 hCB1 response” value (hCB1; Log [Compound] (M) -11.4949) was -32.5619 and the “Barr2+GRK2 hCB1 response” value (hCB1; Log [Compound] (M) -11.9208) was -20.4371. For the same compound, the “Barr2+GRK2 hCB1 response” value (hCB1; Log [Compound] (M) -12.3979) was -30.0093, the “Barr2+GRK2 hCB1 response” value (hCB1; Log [Compound] (M) -12.8861) was -33.2 and the “Barr2+GRK2 hCB1 response” value (hCB1; Log [Compound] (M) -13.3979) was 30.2955. For the same compound, the “Gi1 hCB1” value (hCB1; Log [Compound] (M) -4.22186) was 75.7197, the “GoB hCB1” value (hCB1; Log [Compound] (M) -4.22186) was 87.0618 and the “Gi1 hCB1” value (hCB1; Log [Compound] (M) -4.63927) was 62.7492. For the same compound, the “GoB hCB1” value (hCB1; Log [Compound] (M) -4.63927) was 68.3981, the “Gi1 hCB1” value (hCB1; Log [Compound] (M) -5.05788) was 53.1046 and the “GoB hCB1” value (hCB1; Log [Compound] (M) -5.05788) was 59.4743. For the same compound, the “Gi1 hCB1” value (hCB1; Log [Compound] (M) -5.47381) was 46.6906, the “GoB hCB1” value (hCB1; Log [Compound] (M) -5.47381) was 51.6096 and the “Gi1 hCB1” value (hCB1; Log [Compound] (M) -5.89285) was 39.3106. The “GoB hCB1” value (hCB1; Log [Compound] (M) -5.89285) was 42.3906, the “Gi1 hCB1” value (hCB1; Log [Compound] (M) -6.31878) was 39.2789 and the “GoB hCB1” value (hCB1; Log [Compound] (M) -6.31878) was 35.0814. For the same compound, the “Gi1 hCB1” value (hCB1; Log [Compound] (M) -6.72585) was 25.5166, the “GoB hCB1” value (hCB1; Log [Compound] (M) -6.72585) was 29.2133 and the “Gi1 hCB1” value (hCB1; Log [Compound] (M) -7.14267) was 15.7294. For the same compound, the “GoB hCB1” value (hCB1; Log [Compound] (M) -7.14267) was 18.1713, the “Gi1 hCB1” value (hCB1; Log [Compound] (M) -7.55284) was 6.592 and the “GoB hCB1” value (hCB1; Log [Compound] (M) -7.55284) was 8.536. The “Gi1 hCB1” value (hCB1; Log [Compound] (M) -8) was 0.6052, the “GoB hCB1” value (hCB1; Log [Compound] (M) -8) was 0.9487 and the “Gi1 hCB1” value (hCB1; Log [Compound] (M) -8.22186) was 7.605. The “GoB hCB1” value (hCB1; Log [Compound] (M) -8.22186) was 6.383, the “Gi1 hCB1” value (hCB1; Log [Compound] (M) -8.39794) was -1.77 and the “GoB hCB1” value (hCB1; Log [Compound] (M) -8.39794) was -8.426. The “Gi1 hCB1” value (hCB1; Log [Compound] (M) -8.68787) was -5.112, the “GoB hCB1” value (hCB1; Log [Compound] (M) -8.68787) was -5.249 and the “Gi1 hCB1” value (hCB1; Log [Compound] (M) -9.15521) was -4.764. For the same compound, the “GoB hCB1” value (hCB1; Log [Compound] (M) -9.15521) was -4.208, the “Gi1 hCB1” value (hCB1; Log [Compound] (M) -9.61989) was -4.051 and the “GoB hCB1” value (hCB1; Log [Compound] (M) -9.61989) was -5.197. For the same compound, the “Gi1 hCB1” value (hCB1; Log [Compound] (M) -10.0969) was -5.445, the “GoB hCB1” value (hCB1; Log [Compound] (M) -10.0969) was -5.371 and the “Gi1 hCB1” value (hCB1; Log [Compound] (M) -10.5529) was -5.27. The “GoB hCB1” value (hCB1; Log [Compound] (M) -10.5529) was -5.926, the “Gi1 hCB1” value (hCB1; Log [Compound] (M) -11.0177) was -5.413 and the “GoB hCB1” value (hCB1; Log [Compound] (M) -11.0177) was -5.284. For the same compound, the “Gi1 hCB1” value (hCB1; Log [Compound] (M) -11.4949) was -5.698, the “GoB hCB1” value (hCB1; Log [Compound] (M) -11.4949) was -6.413 and the “Gi1 hCB1” value (hCB1; Log [Compound] (M) -11.9208) was -5.872. For the same compound, the “GoB hCB1” value (hCB1; Log [Compound] (M) -11.9208) was -5.041, the “Gi1 hCB1” value (hCB1; Log [Compound] (M) -12.3979) was -4.415 and the “GoB hCB1” value (hCB1; Log [Compound] (M) -12.3979) was -7.09. The “Gi1 hCB1” value (hCB1; Log [Compound] (M) -12.8861) was -6.854, the “GoB hCB1” value (hCB1; Log [Compound] (M) -12.8861) was -5.666 and the “Gi1 hCB1” value (hCB1; Log [Compound] (M) -13) was -4.779. For the same compound, the “GoB hCB1” value (hCB1; Log [Compound] (M) -13) was -5.6139, the “Gi1 hCB1” value (hCB1; Log [Compound] (M) cell empty) was -2.087 and the “GoB hCB1” value (hCB1; Log [Compound] (M) cell empty) was -1.829. The “pEC50 [95% CI]” value (hCB1; hCB1 Gi1) was 6.0 [5.2 – 6.4], the EC50 (hCB1) was 2 µM and the EC50 (hCB1; read-out: EC50 [95% CI]) was 2.06 µM. The Emax (hCB1; read-out: Emax [95% CI], hCB1 Gi1) was 89%, the Emax (hCB1; read-out: Emax [95% CI], hCB1 GoB) was 109% and the “pKi [95% CI]” value (CB1 (rCB1) [2]) was 6.79 [6.5 – 7.0].
